The values that follow come from paper PMC3727052 (Bioorganic & medicinal chemistry, 2012).

One series relates to VZV (OKA & 07/1). As to the kind of experiment: VZV plaque formation assay in HEL cells. It is filed as cell-based, varicella-zoster virus. To be noted: Human alphaherpesvirus 3, HEL, 120 h, read-out: EC50 VZV (OKA & 07/1).
The test system of a further series is Parainfluenza-3 virus. Put plainly: Virus-induced cytopathicity, parainfluenza-3 virus in Vero cells. To be noted: read-out: EC50 Parainfluenza-3 virus. The format is cell-based. (In general: Protection from cytopathic effect is a common read-out in antiviral testing.)
Another series concerns Reovirus-1. Put plainly: Virus-induced cytopathicity, reovirus-1 in Vero cells. To be noted: read-out: EC50 Reovirus-1. It is filed as cell-based.
In the next series the test system is HEL. Conditions: HEL cells, microscopically visible alteration of cell morphology.
In the next series the test system is HeLa. To be noted: HeLa cells, microscopically visible alteration of cell morphology.
The test system of a further series is Vero. Conditions: Vero cells, microscopically visible alteration of cell morphology.
The test system of a further series is MDCK. To be noted: MDCK cells, microscopically visible alteration of cell morphology.
The next series has as its system RSV. As to the kind of experiment: Virus-induced cytopathicity, RSV in HeLa cells. It is filed as cell-based. To be noted: human respiratory syncytial virus, read-out: EC50 RSV.
The test system of the next series is Influenza virus (AH3N2). Put plainly: Virus-induced cytopathicity, influenza A H3N2 in MDCK cells. It is filed as cell-based. To be noted: unidentified influenza virus, read-out: EC50 Influenza virus (AH3N2).
The next series deals with Influenza virus B. Put plainly: Virus-induced cytopathicity, influenza B in MDCK cells. The format is cell-based. Conditions: unidentified influenza virus, read-out: EC50 Influenza virus B.

Some results are limits rather than exact numbers.

For `Nc1nc2c(sc3ncn([C@H]4C[C@H](O)[C@@H](CO)O4)c32)c(=O)[nH]1` [Compound 5, 1-[(5-Aminoimidazo[4′,5′:4,5]thieno[3,2-d]pyrimidin-3-yl-7-one)]-β-D-2′-deoxyribofuranose], the EC50 in the series with VZV (OKA & 07/1) is 71.3 to 100 µM; in the series on Parainfluenza-3 virus it was > 100 µM; with Reovirus-1, > 100 µM. In the series with HEL, the “MCC (minimal cytotoxic concentration) HEL” value is >100 µM. Also, in the series on HeLa, the “MCC (minimal cytotoxic concentration) HeLa” value is 100 µM. The “MCC (minimal cytotoxic concentration) Vero” value with Vero is listed as 100 µM. In the series on MDCK, the “MCC (minimal cytotoxic concentration) MDCK” value came to 0.8 µM.

For the compound `Nc1ncnc2c1sc1ncn([C@H]3C[C@H](O)[C@@H](CO)O3)c12` [Compound 6, 1-[(7-aminoimidazo[4′,5′:4,5]thieno[3,2-d]pyrimidin-3-yl)]-β-D-2′-deoxyribofuranose], the EC50 with Parainfluenza-3 virus is > 100 µM. The “MCC (minimal cytotoxic concentration) HEL” value in the series with HEL is given as ≥20 µM. Besides, the “MCC (minimal cytotoxic concentration) HeLa” value with HeLa is reported as >100 µM. The “MCC (minimal cytotoxic concentration) Vero” value in the series on Vero is reported as >100 µM. Moreover, the “MCC (minimal cytotoxic concentration) MDCK” value with MDCK was found to be 20 µM.

With `NC(=O)c1ncn([C@@H]2O[C@H](CO)[C@@H](O)[C@H]2O)n1` [Ribavirin], the EC50 in the series with RSV was 10 µM; in the series on Reovirus-1, > 250 µM; in the series on Influenza virus (AH3N2), 5.1 to 9 µM; in the series with Influenza virus B it was 4.5 to 9 µM.
